The subject of one data set is SARS-CoV. Kind of data set: Antiviral activity against SARS-CoV Frankfurt1 infected in African green monkey Vero E6 cells pretreated with compound followed by viral infection and measured at 72 hrs post-infection by MTS assay. The following applies: Severe acute respiratory syndrome-related coronavirus; Frankfurt 1; Vero C1008. In kind it is functional, organism-based. Background: Formazan colour is commonly taken as a measure of viable cells.

Data set [1] relates to Middle East respiratory syndrome-related coronavirus. Put plainly: Antiviral activity against MERS-CoV EMC/2012 infected in African green monkey Vero cells pretreated with compound followed by viral infection and measured at 72 hrs post-infection by MTS assay. In kind it is functional, organism-based.
A further data set has as its system Chikungunya virus. Put plainly: Antiviral activity against CHIKV LS3 infected in African green monkey Vero E6 cells assessed as reduction in virus-induced cytopathic effect pretreated with compound followed by viral infection and measured at 96 hrs post-infection by MTS assay. In kind it is functional, organism-based. The following applies: LS3, Vero C1008. (Cytopathic effects are the visible damage that an infection or toxin causes in cultured cells.)

The next data set relates to Vero C1008. Put plainly: Cytotoxicity against African green monkey Vero E6 cells assessed as reduction in cell viability measured after 96 hrs by MTS assay. In kind it is cell-based. The following applies: chlorocebus sabaeus, vero c1008, 96 h.
For the next data set, the system named is Zika virus. Put plainly: Antiviral activity against ZIKV SL0612 infected in African green monkey Vero CCL81 cells pretreated with compound followed by viral infection and measured at 96 hrs post-infection by MTS assay. In kind it is functional, organism-based.
The next data set deals with Adenosylhomocysteinase (Homo sapiens, UniProt P23526). Put plainly: Inhibition of human placental SAH hydrolase expressed in Escherichia coli JM109 using SAH as substrate preincubated for 10 mins followed by SAH addition and measured after 20 mins by DNTB reagent-based spectrophotometric method.
A short description of data set [2]: Selectivity index, ratio of CC50 for African green monkey Vero E6 cells to EC50 for antiviral activity against CHIKV-LS3 infected in African green monkey Vero E6 cells. In kind it is toxicity, Vero C1008. The following applies: read-out: Ratio CC50/EC50.

Calls of active or inactive are those of the source. The calls are words filed in the database; no cut-off is given here. A value given as a limit tells only on which side of the number the result lay.

Broadly, the EC50 is the concentration at which the effect is half-maximal. In general, CC50 refers to the concentration giving 50% cytotoxicity. For orientation: IC50 means the concentration that gives 50% inhibition.

Sequence of Adenosylhomocysteinase (P23526 whole entry): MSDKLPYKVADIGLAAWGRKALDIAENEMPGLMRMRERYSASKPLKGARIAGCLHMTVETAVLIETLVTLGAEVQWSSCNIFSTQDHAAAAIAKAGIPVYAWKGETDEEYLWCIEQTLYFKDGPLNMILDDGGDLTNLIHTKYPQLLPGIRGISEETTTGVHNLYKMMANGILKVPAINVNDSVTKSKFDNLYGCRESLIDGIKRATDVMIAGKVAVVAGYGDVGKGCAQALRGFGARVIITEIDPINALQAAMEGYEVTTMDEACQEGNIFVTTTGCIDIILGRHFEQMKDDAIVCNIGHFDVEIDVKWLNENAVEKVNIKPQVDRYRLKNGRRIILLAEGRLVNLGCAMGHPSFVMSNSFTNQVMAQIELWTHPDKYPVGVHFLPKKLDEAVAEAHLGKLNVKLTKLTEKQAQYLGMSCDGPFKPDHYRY

As for `Nc1ncnc2c1ncn2[C@H]1[C@H](O)[C@H](O)[C@@H](CO)[C@H]1F`, the outcome (in the data set on SARS-CoV; in data set [1]; with Zika virus) was Active. In the data set on Chikungunya virus, the EC50 is greater than 100 µM. Further, in the data set with Vero C1008, the CC50 is greater than 100 µM.
For the molecule `OCC[C@@H]1[C@@H](O)[C@@H](O)[C@H](n2cnc3c(O)ncnc32)[C@@H]1F`, the outcome (in the data set on SARS-CoV; in data set [1]; with Zika virus) was inactive. The molecule further registered an IC50 at Adenosylhomocysteinase greater than 100 µM. In the data set on Chikungunya virus, the half-maximal effective concentration (EC50) was greater than 100 µM. The CC50 with Vero C1008 was greater than 100 µM.
For `CNc1ncnc2c1ncn2[C@H]1[C@H](O)[C@H](O)[C@@H](CCO)C1(F)F`, the result (in the data set with SARS-CoV; in data set [1]; in the data set with Zika virus) was inactive. For the same molecule, on Adenosylhomocysteinase, half-maximal inhibition (IC50) required 3.05 µM. Also, the concentration for a half-maximal effect (EC50) in the data set with Chikungunya virus is greater than 100 µM. For the same molecule, the CC50 with Vero C1008 was greater than 100 µM.
For `Nc1ncnc2c1ncn2[C@H]1[C@H](O)[C@H](O)[C@@H](CCO)C1(F)F`, the outcome (in the data set on SARS-CoV; in data set [1]; with Zika virus) was inactive. For the same molecule, on Adenosylhomocysteinase, inhibition was half-maximal at 2.03 µM (IC50). In addition, the EC50 in the data set on Chikungunya virus was greater than 100 µM. Moreover, the half-maximal cytotoxic concentration (CC50) in the data set with Vero C1008 was greater than 25 µM.
On to `Nc1ncnc2c1ncn2[C@H]1[C@H](O)[C@H](O)[C@@H](CO)C1(F)F`, for which the outcome (in the data set with SARS-CoV; in data set [1]; with Zika virus) was Active. The 50% effective concentration (EC50) in the data set with Chikungunya virus worked out at 0.13 µM. For the same molecule, the CC50 in the data set with Vero C1008 was greater than 1.25 µM.
Take `Nc1ncnc2c1ncn2[C@H]1[C@H](O)[C@H](O)[C@@H](CCO)[C@H]1F`: the outcome (in the data set with SARS-CoV; in data set [1]; in the data set with Zika virus) was inactive. 0.36 µM corresponded to half-maximal inhibition at Adenosylhomocysteinase (IC50). Also, in the data set with Chikungunya virus, the concentration giving a half-maximal response (EC50) amounted to 0.12 µM. Besides, the 50% cytotoxic concentration (CC50) with Vero C1008 is greater than 250 µM. The selectivity ratio in data set [2] was greater than 2080.
On to `CNc1ncnc2c1ncn2[C@H]1[C@H](O)[C@H](O)[C@@H](CCO)[C@H]1F`, for which the outcome (in the data set with SARS-CoV; in data set [1]; in the data set on Zika virus) was inactive. Further, the IC50 against Adenosylhomocysteinase is 0.37 µM. The EC50 in the data set with Chikungunya virus was greater than 100 µM. Also, the CC50 in the data set on Vero C1008 is greater than 100 µM.

The record behind these values is ChEMBL document CHEMBL4602649, “Identification of 6'-β-fluoro-homoaristeromycin as a potent inhibitor of chikungunya virus replication” (Eur J Med Chem, 2020).
